Laboratory results reported in the supplement of paper PMC8149375.

Assays:
Settings in all cases: treatment: drug alone; 5 days
UO-31 [1] = experiment: GI50, drug alone; higher = less potent
Description: (§1)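 Primary HTS: 8 RCC cell lines treated with 8 doses (up to 10 uM) of each library drug alone for 5 days; viability read by CellTiter-Glo and normalised to DMSO. GI50 was fitted with XLfit (4-parameter), AUC is the area under the dose-response curve, and minimum viability is the lowest fraction of DMSO viability across doses.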

TK-10 [2] = experiment: GI50, drug alone; higher = less potent
Description: as §1

CAKI-1 [3] = experiment: GI50, drug alone; higher = less potent
Description: as §1

SN12C [4] = experiment: GI50, drug alone; higher = less potent
Description: as §1

ACHN [5] = experiment: GI50, drug alone; higher = less potent
Description: as §1

769-P [6] = experiment: GI50, drug alone; higher = less potent
Description: as §1

786-O [7] = experiment: GI50, drug alone; higher = less potent
Description: as §1

A498 [8] = experiment: GI50, drug alone; higher = less potent
Description: as §1

UO-31 [9] = experiment: minimum viability across doses, drug alone, relative to DMSO (fraction); higher = less growth inhibition
Description: as §1

TK-10 [10] = experiment: as above
Description: as §1

CAKI-1 [11] = experiment: as above
Description: as §1

SN12C [12] = experiment: as above
Description: as §1

ACHN [13] = experiment: as above
Description: as §1

769-P [14] = experiment: as above
Description: as §1

786-O [15] = experiment: as above
Description: as §1

A498 [16] = experiment: as above
Description: as §1

UO-31 [17] = experiment: AUC of dose-response viability curve, drug alone (arbitrary (AUC of normalised viability)); higher = less growth inhibition
Description: as §1

TK-10 [18] = experiment: as above
Description: as §1

CAKI-1 [19] = experiment: as above
Description: as §1

SN12C [20] = experiment: as above
Description: as §1

ACHN [21] = experiment: as above
Description: as §1

769-P [22] = experiment: as above
Description: as §1

786-O [23] = experiment: as above
Description: as §1

A498 [24] = experiment: as above
Description: as §1

| Structure (SMILES) | GI50, drug alone (UO-31 [1]) [µM] | GI50, drug alone (TK-10 [2]) [µM] | GI50, drug alone (CAKI-1 [3]) [µM] | GI50, drug alone (SN12C [4]) [µM] | GI50, drug alone (ACHN [5]) [µM] | GI50, drug alone (769-P [6]) [µM] | GI50, drug alone (786-O [7]) [µM] | GI50, drug alone (A498 [8]) [µM] | minimum viability across doses (UO-31 [9]) | minimum viability across doses (TK-10 [10]) | minimum viability across doses (CAKI-1 [11]) | minimum viability across doses (SN12C [12]) | minimum viability across doses (ACHN [13]) | minimum viability across doses (769-P [14]) | minimum viability across doses (786-O [15]) | minimum viability across doses (A498 [16]) | AUC of dose-response viability curve (UO-31 [17]) | AUC of dose-response viability curve (TK-10 [18]) | AUC of dose-response viability curve (CAKI-1 [19]) | AUC of dose-response viability curve (SN12C [20]) | AUC of dose-response viability curve (ACHN [21]) | AUC of dose-response viability curve (769-P [22]) | AUC of dose-response viability curve (786-O [23]) | AUC of dose-response viability curve (A498 [24]) |
| --- | --- | --- | --- | --- | --- | --- | --- | --- | --- | --- | --- | --- | --- | --- | --- | --- | --- | --- | --- | --- | --- | --- | --- | --- |
| Cc1ccc(NC(=O)c2cccc(N(C)C)c2)cc1NC(=O)c1ccc(O)cc1 | > 10 | > 10 | > 10 | > 10 | > 10 | > 10 | > 10 | > 10 | 0.895 | 0.677 | 0.984 | 0.845 | 0.816 | 0.92 | 0.535 | 0.864 | 4.13 | 2.59 | 3.64 | 3.31 | 3.32 | 3.39 | 2.5 | 4.56 |
| COc1cc2c(Nc3ccc(NC(=O)c4ccccc4)cc3)ncnc2cc1OCCCN1CCOCC1 | 9.01 | 4.2 | 2.63 | > 10 | 3.42 | 5.72 | 2 | > 10 | 0.175 | 0.243 | 0.108 | 0.537 | 0.152 | 0.24 | 0.00931 | 0.722 | 4.2 | 2.86 | 3.03 | 2.89 | 2.57 | 3.12 | 2.52 | 4.49 |
| CC1CCN(C(=O)CC#N)C[C@@H]1N(C)c1ncnc2[nH]ccc12.O=C(O)CC(O)(CC(=O)O)C(=O)O (stereo in doubt) | > 10 | > 10 | > 10 | > 10 | > 10 | > 10 | > 10 | > 10 | 0.897 | 0.797 | 0.918 | 0.854 | 0.771 | 0.938 | 0.614 | 0.817 | 4.05 | 3.16 | 3.73 | 3.23 | 3.18 | 3.66 | 2.72 | 3.54 |
| O=C1NC(=O)C(=Cc2ccc(-c3ccc(F)cc3)o2)S1 (stereo in doubt) | 7.95 | > 10 | > 10 | > 10 | > 10 | > 10 | > 10 | > 10 | 0.311 | 0.81 | 0.882 | 0.82 | 0.871 | 0.859 | 0.566 | 0.852 | 3.29 | 3.07 | 3.34 | 3.23 | 3.47 | 3.33 | 2.4 | 3.71 |
| CO[C@H]1C[C@H]2CC[C@@H](C)[C@@](O)(O2)C(=O)C(=O)N2CCCC[C@H]2C(=O)O[C@H]([C@H](C)C[C@@H]2CC[C@H](OP(C)(C)=O)[C@H](OC)C2)CC(=O)[C@H](C)/C=C(\C)[C@@H](O)[C@@H](OC)C(=O)[C@H](C)C[C@H](C)/C=C/C=C/C=C/1C (stereo in doubt) [Deforolimus (Ridaforolimus)] | 0.00775 | > 10 | 1.07 | 0.454 | 0.559 | > 10 | < 0.003 | > 10 | 0.0878 | 0.542 | 0.456 | 0.443 | 0.409 | 0.607 | 0.271 | 0.636 | 0.965 | 2.42 | 2.1 | 2.23 | 1.98 | 2.66 | 1.24 | 2.6 |
| CO[C@H]1CC2CC[C@@H](C)[C@@](O)(O2)C(=O)C(=O)N2CCCC[C@H]2C(=O)O[C@H]([C@H](C)C[C@@H]2CCC(OC(=O)C(C)(CO)CO)[C@H](OC)C2)CC(=O)[C@H](C)/C=C(\C)[C@@H](O)[C@@H](OC)C(=O)[C@H](C)C[C@H](C)/C=C/C=C/C=C/1C (stereo in doubt) [Temsirolimus (Torisel)] | 0.0803 | 3.9 | 1.27 | > 10 | 0.386 | > 10 | < 0.003 | > 10 | 0.299 | 0.486 | 0.433 | 0.578 | 0.407 | 0.62 | 0.294 | 0.641 | 1.58 | 2.39 | 2.15 | 2.31 | 2.03 | 2.8 | 1.31 | 2.57 |
| Cn1cnc(N)c2ncnc1-2 [3-Methyladenine] | > 10 | > 10 | > 10 | > 10 | > 10 | > 10 | > 10 | > 10 | 1.12 | 0.696 | 0.991 | 0.961 | 0.879 | 0.947 | 0.618 | 1.04 | 4.92 | 2.77 | 3.74 | 3.65 | 3.25 | 3.6 | 2.67 | 3.89 |
| Cc1nc(NC(=O)N2CCC[C@H]2C(N)=O)sc1-c1csc(C(C)(C)C)n1 [A66] | > 10 | > 10 | > 10 | > 10 | > 10 | > 10 | 5.72 | > 10 | 0.757 | 0.631 | 0.805 | 0.659 | 0.803 | 0.823 | 0.418 | 0.787 | 3.47 | 2.93 | 3.36 | 2.94 | 3.42 | 3.33 | 2.57 | 3.34 |
